The data set is described as follows: Enhancement in bioavailability of drugs by the Cuminum cyminum active molecule / fraction.
The mark [1] stands for this setting: drug given with Active molecule (3′,5-dihydroxy flavone-7-O-β-D-galacturonide-4′-O-β-D-glucopyranoside).
[2] abbreviates: drug given with Fraction from Cuminum cyminum.

In the case of `Nc1ccc(S(=O)(=O)c2ccc(N)cc2)cc1` [Dapsone], the “% Enhancement in bioavailability” value reads like this: under setting [1], 67%; under setting [2], 93%.

Regarding `NNC(=O)c1ccncc1` [Isoniazid], the “% Enhancement in bioavailability” value under setting [2] turned out to be 30%.

`CC1=C(C(=O)O)N2C(=O)[C@@H](NC(=O)[C@H](N)c3ccc(O)cc3)[C@H]2SC1` [Cefadroxil]: the “% Enhancement in bioavailability” value by setting is: under setting [1], 85%; under setting [2], 120%.

As to `C[C@@H]1[C@H](O)[C@@H](C)/C=C/C=C/C=C/C=C/C=C/C=C/C=C/[C@H](O[C@@H]2O[C@H](C)[C@@H](O)[C@H](N)[C@@H]2O)C[C@@H]2O[C@](O)(C[C@@H](O)C[C@@H](O)[C@H](O)CC[C@@H](O)C[C@@H](O)CC(=O)O[C@H]1C)C[C@H](O)[C@H]2C(=O)O` [Amphotericin B], the “% Enhancement in bioavailability” value is 95% under setting [1] and 90% under setting [2].

As to `CC(C)(C)NCC(O)c1ccc(O)c(CO)c1` (stereo not drawn) [Salbutamol], the “% Enhancement in bioavailability” value turned out to be 98% under setting [1] and 75% under setting [2].

With `CN(Cc1cnc2nc(N)nc(N)c2n1)c1ccc(C(=O)N[C@@H](CCC(=O)O)C(=O)O)cc1` [Methotrexate], the “% Enhancement in bioavailability” value is, setting by setting: under setting [1], 95%; under setting [2], 140%.

On to `Cc1cn([C@H]2C[C@H](N=[N+]=[N-])[C@@H](CO)O2)c(=O)[nH]c1=O` [Zidovudine], for which the “% Enhancement in bioavailability” value was determined as 120% under setting [1] and 135% under setting [2].

As to `CCc1cc(C(N)=S)ccn1` [Ethionamide], the “% Enhancement in bioavailability” value is, setting by setting: under setting [1], 120%; under setting [2], 110%.

`CC(=O)N1CCN(c2ccc(OCC3COC(Cn4ccnc4)(c4ccc(Cl)cc4Cl)O3)cc2)CC1` (stereo not drawn) [Ketoconazole]: the “% Enhancement in bioavailability” value by setting is: under setting [1], 77%; under setting [2], 85%.

As to `C=CC[C@@H]1/C=C(\C)C[C@H](C)C[C@H](OC)[C@H]2O[C@@](O)(C(=O)C(=O)N3CCCC[C@H]3C(=O)O[C@H](/C(C)=C/[C@@H]3CC[C@@H](O)[C@H](OC)C3)[C@H](C)[C@@H](O)CC1=O)[C@H](C)C[C@@H]2OC` [Tacrolimus], the “% Enhancement in bioavailability” value by setting is: under setting [1], 90%; under setting [2], 110%.

Consider `O=c1[nH]cc(F)c(=O)[nH]1` [5-Fluorouracil], for which the “% Enhancement in bioavailability” value runs as follows: under setting [1], 110%; under setting [2], 240%.

Consider `N[C@@H]1CON=C1O` [Cycloserine], for which the “% Enhancement in bioavailability” value is 85% under setting [1] and 110% under setting [2].

With `CC[C@H]1OC(=O)[C@H](C)[C@@H](O[C@H]2C[C@@](C)(OC)[C@@H](O)[C@H](C)O2)[C@H](C)[C@@H](O[C@@H]2O[C@H](C)C[C@H](N(C)C)[C@H]2O)[C@](C)(O)C[C@@H](C)CN(C)[C@H](C)[C@@H](O)[C@]1(C)O` [Azithromycin], the “% Enhancement in bioavailability” value was determined as 82% under setting [1] and 115% under setting [2].

With `Nc1nc2c(ncn2COCCO)c(=O)[nH]1` [Acyclovir], the “% Enhancement in bioavailability” value is, setting by setting: under setting [1], 89%; under setting [2], 110%.

Consider `CN1C(C(=O)Nc2ccccn2)=C(O)c2ccccc2S1(=O)=O` [Piroxicam], for which the “% Enhancement in bioavailability” value is, setting by setting: under setting [1], 76%; under setting [2], 100%.

For `NCC[C@H](O)C(=O)N[C@@H]1C[C@H](N)[C@@H](O[C@H]2O[C@H](CN)[C@@H](O)[C@H](O)[C@H]2O)[C@H](O)[C@H]1O[C@H]1O[C@H](CO)[C@@H](O)[C@H](N)[C@H]1O` [Amikacin], the “% Enhancement in bioavailability” value is 76% under setting [1] and 87% under setting [2].

In the case of `CS(=O)(=O)Nc1ccc([N+](=O)[O-])cc1Oc1ccccc1` [Nimesulide], the “% Enhancement in bioavailability” value under setting [1] was determined as 90% and the “% Enhancement in bioavailability” value under setting [2] is given as 115%.

As for `Cn1c(=O)c2[nH]cnc2n(C)c1=O` [Theophylline], the “% Enhancement in bioavailability” value under setting [1] was 75% and the “% Enhancement in bioavailability” value under setting [2] is reported as 95%.

Turning to `CC[C@H]1OC(=O)[C@H](C)[C@@H](O[C@H]2C[C@@](C)(OC)[C@@H](O)[C@H](C)O2)[C@H](C)[C@@H](O[C@@H]2O[C@H](C)C[C@H](N(C)C)[C@H]2O)[C@](C)(O)C[C@@H](C)C(=O)[C@H](C)[C@@H](O)[C@]1(C)O` [Erythromycin], the “% Enhancement in bioavailability” value under setting [1] turned out to be 70% and the “% Enhancement in bioavailability” value under setting [2] is recorded as 80%.

Regarding `O=C(O)Cc1ccccc1Nc1c(Cl)cccc1Cl` [Diclofenac], the “% Enhancement in bioavailability” value under setting [1] stood at 105% and the “% Enhancement in bioavailability” value under setting [2] was found to be 125%.

On to `CC(C)NCC(O)COc1cccc2ccccc12` (stereo not drawn) [Propranolol], for which the “% Enhancement in bioavailability” value by setting is: under setting [1], 85%; under setting [2], 140%.

Consider `O=C(CCCN1CCC(O)(c2ccc(Cl)cc2)CC1)c1ccc(F)cc1` [Haloperidol], for which the “% Enhancement in bioavailability” value by setting is: under setting [1], 72%; under setting [2], 60%.

With `CC1(C)S[C@@H]2[C@H](NC(=O)[C@H](N)c3ccc(O)cc3)C(=O)N2[C@H]1C(=O)O` [Amoxycillin], the “% Enhancement in bioavailability” value reads like this: under setting [1], 68%; under setting [2], 105%.

In the case of `CO/N=C(\C(=O)N[C@@H]1C(=O)N2C(C(=O)O)=C(CSc3nc(=O)c(O)nn3C)CS[C@H]12)c1csc(N)n1` [Cefatrioxone], the “% Enhancement in bioavailability” value reads like this: under setting [1], 75%; under setting [2], 100%.

As to `CCOC(=O)C1=C(COCCN)NC(C)=C(C(=O)OC)C1c1ccccc1Cl` (stereo not drawn) [Amlodipine], the “% Enhancement in bioavailability” value runs as follows: under setting [1], 80%; under setting [2], 130%.

For `Cc1nnc2n1-c1ccc(Cl)cc1C(c1ccccc1)=NC2` [Alprazolam], the “% Enhancement in bioavailability” value under setting [1] amounted to 70% and the “% Enhancement in bioavailability” value under setting [2] is on record as 75%.

Consider `COc1ccc2[nH]c([S+]([O-])Cc3ncc(C)c(OC)c3C)nc2c1` (stereo not drawn) [Omeprazole], for which the “% Enhancement in bioavailability” value runs as follows: under setting [1], 72%; under setting [2], 87%.

Regarding `CO[C@H]1/C=C/O[C@@]2(C)Oc3c(C)c(O)c4c(O)c(c(/C=N/N5CCN(C)CC5)c(O)c4c3C2=O)NC(=O)/C(C)=C\C=C\[C@H](C)[C@H](O)[C@@H](C)[C@@H](O)[C@@H](C)[C@H](OC(C)=O)[C@@H]1C` [Rifampicin], the “% Enhancement in bioavailability” value under setting [1] is listed as 90% and the “% Enhancement in bioavailability” value under setting [2] stood at 170%.

`CN/C(=N/CCSCc1nc[nH]c1C)NC#N` [Cimetidine]: the “% Enhancement in bioavailability” value runs as follows: under setting [1], 76%; under setting [2], 70%.

As for `COc1cccc2c1C(=O)c1c(O)c3c(c(O)c1C2=O)C[C@@](O)(C(=O)CO)C[C@@H]3O[C@H]1C[C@H](N)[C@H](O)[C@H](C)O1` [Doxorubicin], the “% Enhancement in bioavailability” value was found to be 78% under setting [1] and 90% under setting [2].

Consider `CN(Cc1cc(Br)cc(Br)c1N)C1CCCCC1` [Bromhexine], for which the “% Enhancement in bioavailability” value under setting [2] is reported as 35%.

Regarding `CS(=O)(=O)c1ccc(C2=C(c3ccccc3)C(=O)OC2)cc1` [Rofecoxib], the “% Enhancement in bioavailability” value runs as follows: under setting [1], 43%; under setting [2], 70%.

For `CCn1cc(C(=O)O)c(=O)c2cc(F)c(N3CCNCC3)cc21` [Norfloxacin], the “% Enhancement in bioavailability” value reads like this: under setting [1], 45%; under setting [2], 55%.

In the case of `CNC(=C[N+](=O)[O-])NCCSCc1ccc(CN(C)C)o1` [Ranitidine], the “% Enhancement in bioavailability” value under setting [1] stood at 95% and the “% Enhancement in bioavailability” value under setting [2] is reported as 95%.

The record behind these values is patent US20040121028A1, “Plant based agents as bioavailability / bioefficacy enhancers for drugs and nutraceuticals” (COUNCIL OF SCIENTIFIC AND INDUSTRIAL RESEARCH, priority 2002, published 2004).
